Assay results: US20210052632A1, “SELECTIVE PARP1 INHIBITORS TO TREAT CANCER” (Cambridge Enterprise Limited, priority 2018, published 2021)
Read-outs that look alike come from different tables or passages of the source.

Assays:
[1] = target: T1, human full length active PARP1 (Homo sapiens, UniProt P09874); assay: PARP inhibitor assay, fluorescence-based (PARP1 Enzyme Activity Assay kit), PARP1; type: biochemical
T1 construct: human full length active PARP1 (CS207770, Merck); purchased Merck CS207770
Excerpt: (§1) The PARP inhibitor assay is a direct fluorescence-based concentration measurement of reaction product formation. The assay reagents are sold as a commercial kit (see http://www.merckmillipore.com/GB/en/product/PARP1-Enzyme-Activity-Assay,MM_NF-17-10149). To measure PARP inhibition, the NAD+ substrate concentration should be set at Km (the Michaelis constant) to enable identifications of all types of inhibitors (competitive, uncompetitive and non-competitive (allosteric) (the latter represents a mode of action of Zn-finger inhibitors)), direct calculation of inhibitor potency (Ki) and in vivo modelling. (See in and literature sited therein: Michael G. Acker, Douglas S. Auld. Considerations for the design and reporting of enzyme assays in high-throughput screening applications. Perspectives in Science (2014) 1, 56-73).
(§2) PARP activity and inhibition was measured for human full length active PARP1 (CS207770, Merck), PARP2 (ab198766, Abeam) and PARP3 (ab79638, Abeam) proteins. Inhibitor compounds (Sodium Aurothiomalate and Aurothioglucose, Sigma-Aldrich and Auranofin, Bio-Techne) at different concentrations (1, 10 and 100 nM, 1, 10 and 100 μM final) were added to the reaction buffer, concocted as a 1:1 mixture of Merck kit buffer with 50 mM Tris-HCl, 100 mM NaCl, 5 mM MgCl2, 0.05% Tween-20, pH 8.0, Sigma), and incubated with PARP1 (2.5 ng/μL final), PARP2 (2.2 ng/μL final) or PARP3 (55 ng/μL final) at room temperature for 30 min.
(§3) Further, activated DNA (2 ng/μL final), […] (60 and 400 μM final for PARP1/2 and PARP3, respectively) and Nicotinamidase (200 ng/μL final) were added and incubated at 37° C. for 45 min. Total reaction volume was 25 μL.
(§4) Controls were executed as follows: • 1. Control of 0% inhibition contained reaction sample without inhibitor; • 2. Control of 100% inhibition of PARP1/2/3 activity contained reaction sample without β-NAD; and • 3. Control of 100% inhibition of DNA-dependent activity contained reaction sample without DNA.
(§5) After the plates were cooled down to room temperature, 25 μL of Merck proprietary reagent was added to the reaction mixture and incubated at mild shaking for 45 min. Fluorescence measurement was carried out at excitation wavelength of 410 nm and emission of 460 nm in Fluostar Omega microplate reader (BMG Labtech).
(§6) Total PARP1/2/3 activity was calculated as a difference between control (1) and control (2). DNA-independent activity was calculated as a difference between control (1) and control (3). DNA-dependent activity was calculated as the difference between the total PARP1/2/3 activity and DNA-independent activity. […] However, potentially up to 30% of PARP1 activity can be DNA-independent.
(§7) Inhibitory values were converted into percentages according to controls. Controls (1) and (3) were used in the case of PARP1, because only inhibition of DNA-dependent activity was observed, and the results are shown in FIG. 2. Controls (1) and (2) were used in the case of PARP2/3, because inhibition of total PARP2/3 activity (both DNA-dependent and DNA-independent reactions) was observed. FIGS. 3 and 4 show the percentage inhibition of PARP1 and PARP2 for different concentrations of aurothiomalate and aurothioglucose, respectively.

[2] = target: T2, human full length active PARP2 (Homo sapiens, UniProt Q9UGN5); assay: PARP inhibitor assay, fluorescence-based, PARP2; type: biochemical
T2 construct: human full length active PARP1 (CS207770, Merck), PARP2 (ab198766, Abeam); purchased Abcam ab198766
Excerpt: as §1, §2, §3, §4, §5, §6, §7

[3] = target: T3, human full length active PARP3 (Homo sapiens, UniProt Q9Y6F1); assay: PARP inhibitor assay, fluorescence-based, PARP3; type: biochemical; details: for IC50: inhibition of total PARP3 activity (controls 1 and 2), 400 μM β-NAD
T3 construct: human full length active PARP1 (CS207770, Merck), PARP2 (ab198766, Abeam) and PARP3 (ab79638, Abeam) proteins; purchased Abcam ab79638
T3 sequence (Q9Y6F1 1-533): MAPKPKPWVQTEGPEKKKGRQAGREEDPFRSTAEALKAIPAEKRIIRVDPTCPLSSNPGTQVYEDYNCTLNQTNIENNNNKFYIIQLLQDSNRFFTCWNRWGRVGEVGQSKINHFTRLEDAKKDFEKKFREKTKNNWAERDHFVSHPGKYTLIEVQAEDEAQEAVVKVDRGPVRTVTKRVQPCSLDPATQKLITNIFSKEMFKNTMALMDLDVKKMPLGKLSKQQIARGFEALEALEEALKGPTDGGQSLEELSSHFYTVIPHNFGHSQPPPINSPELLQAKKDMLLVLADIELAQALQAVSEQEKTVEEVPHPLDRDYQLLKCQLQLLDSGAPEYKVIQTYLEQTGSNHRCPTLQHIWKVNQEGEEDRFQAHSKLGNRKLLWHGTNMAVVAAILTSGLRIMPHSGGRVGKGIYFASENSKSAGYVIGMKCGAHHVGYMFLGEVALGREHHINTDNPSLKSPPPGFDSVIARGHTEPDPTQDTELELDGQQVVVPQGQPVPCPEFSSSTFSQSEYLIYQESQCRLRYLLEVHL
Excerpt: as §1, §2, §3, §4, §5, §6
Inhibitory values were converted into percentages according to controls. […]

[4] = tested on: rats fed a high adenine/low protein diet (chronic kidney disease); assay: Bone density in rat model on high adenine/low protein diet (CKD), SEM/TEM of long limb bone cross sections; type: in vivo; details: 50 mg/kg/day for 6 weeks; cortical area of long limb bone cross section; vs control and untreated CKD-diet rats; FIG. 8b
Protocol: The effects of minocycline on bone calcification processes were evaluated in an in vivo rat model. The rats were fed a high adenine/low protein diet in order to develop chronic kidney disease (CKD) and associated hyperphosphatemia and medial vascular calcification. It is also expected to cause increased rates of bone turnover, allowing the inventors to examine whether inhibition of PARP2 enzymatic activity during bone remodelling affected mineralization. 14 of the rats on the high adenine/low protein diet were treated with 50 mg/kg/day of minocycline for 6 weeks. At the end of the study period cross sections of the long limb bone were analysed using scanning electron microscopy (SEM) and transmission electron microscopy (TEM), see FIG. 7, and the area fraction of solid bone in the cortical area of the bone cross section was quantified from these images, see FIG. 8. Statistical significance was determined by Mann-Whitney test.

[5] = inhibition of DNA-dependent activity (controls 1 and 3), 60 μM β-NAD, activated DNA, read-out: IC50 PARP1
[6] = inhibition of total PARP2 activity (controls 1 and 2), 60 μM β-NAD, read-out: IC50 PARP2

T1 sequence (P09874 whole entry): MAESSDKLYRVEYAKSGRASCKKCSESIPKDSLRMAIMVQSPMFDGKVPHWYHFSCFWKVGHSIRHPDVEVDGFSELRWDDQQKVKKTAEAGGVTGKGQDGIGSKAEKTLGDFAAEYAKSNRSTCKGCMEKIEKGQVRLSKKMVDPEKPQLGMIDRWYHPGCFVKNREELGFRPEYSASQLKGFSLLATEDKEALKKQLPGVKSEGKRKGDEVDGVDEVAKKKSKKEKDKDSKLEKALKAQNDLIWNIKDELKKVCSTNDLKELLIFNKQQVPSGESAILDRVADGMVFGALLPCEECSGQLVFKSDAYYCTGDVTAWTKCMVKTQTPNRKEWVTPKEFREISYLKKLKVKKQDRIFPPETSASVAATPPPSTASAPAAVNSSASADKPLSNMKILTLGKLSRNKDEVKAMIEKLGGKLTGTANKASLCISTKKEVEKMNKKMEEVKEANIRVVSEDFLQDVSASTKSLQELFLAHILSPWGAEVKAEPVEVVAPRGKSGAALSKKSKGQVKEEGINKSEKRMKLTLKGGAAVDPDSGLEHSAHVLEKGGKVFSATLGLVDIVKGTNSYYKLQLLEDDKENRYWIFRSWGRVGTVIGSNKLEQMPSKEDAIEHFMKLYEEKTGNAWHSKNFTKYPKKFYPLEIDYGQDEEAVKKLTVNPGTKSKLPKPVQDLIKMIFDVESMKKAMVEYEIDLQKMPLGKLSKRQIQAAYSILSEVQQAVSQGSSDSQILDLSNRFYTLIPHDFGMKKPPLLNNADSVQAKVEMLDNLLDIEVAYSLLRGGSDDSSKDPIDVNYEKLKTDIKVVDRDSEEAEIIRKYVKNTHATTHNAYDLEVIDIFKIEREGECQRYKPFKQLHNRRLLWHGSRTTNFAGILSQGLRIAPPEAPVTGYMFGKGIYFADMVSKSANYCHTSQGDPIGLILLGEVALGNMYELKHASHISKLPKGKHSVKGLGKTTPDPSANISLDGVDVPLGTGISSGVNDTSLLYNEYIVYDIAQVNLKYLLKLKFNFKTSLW
T2 sequence (Q9UGN5 whole entry): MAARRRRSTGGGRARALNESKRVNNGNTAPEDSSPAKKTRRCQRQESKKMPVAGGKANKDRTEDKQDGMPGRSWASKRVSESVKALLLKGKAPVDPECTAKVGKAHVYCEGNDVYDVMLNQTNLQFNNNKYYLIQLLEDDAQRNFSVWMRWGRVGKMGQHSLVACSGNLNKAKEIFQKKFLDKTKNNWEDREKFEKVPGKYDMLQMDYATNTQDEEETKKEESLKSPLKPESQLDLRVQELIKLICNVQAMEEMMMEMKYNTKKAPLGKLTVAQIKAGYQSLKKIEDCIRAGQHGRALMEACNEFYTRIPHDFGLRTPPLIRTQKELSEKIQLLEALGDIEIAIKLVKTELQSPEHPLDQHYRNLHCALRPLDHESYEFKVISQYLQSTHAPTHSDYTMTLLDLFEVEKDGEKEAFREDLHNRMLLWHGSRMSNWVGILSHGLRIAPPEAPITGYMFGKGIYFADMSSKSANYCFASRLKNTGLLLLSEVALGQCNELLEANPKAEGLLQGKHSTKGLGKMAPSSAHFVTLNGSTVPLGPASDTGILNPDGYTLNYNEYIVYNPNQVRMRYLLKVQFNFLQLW

Molecule | PARP1 inhibition (in words) ([1]; FIG. 2 and Table 1) | IC50 [1, 5] [nM] | PARP2 inhibition (in words) [2] | IC50 [2, 6] [nM] | DNA-independent PARP1 activity in the presence of the compound [1] | IC50 [1] [nM] | PARP3 inhibition (in words) [3] | IC50 [3] [nM] | IC50 ([1]; assay of Example 1, FIG. 6, read-out: IC50 PARP1) [nM] | IC50 [2] [nM] | PARP2 vs PARP1 selectivity factor ([2]; ratio of PARP1 and PARP2 IC50) | reduction in the area fraction of solid bone [4] [%]
CC(=O)OC[C@H]1O[C@@H]([S-])[C@H](OC(C)=O)[C@@H](OC(C)=O)[C@@H]1OC(C)=O.CCP(CC)CC.[Au+] [Auranofin] | only inhibits PARP1 and PARP2 at very high concentrations | 1400 ± 98 | only inhibits PARP1 and PARP2 at very high concentrations | 1160 ± 81 | – | – | – | – | – | – | – | –
OC[C@H]1OC([S][Au])[C@H](O)[C@@H](O)[C@@H]1O (some centres unmarked) [Aurothioglucose] | – | – | not inhibited | 4450 ± 623 | maintained | 120 ± 7 | not inhibited | 1140 ± 20 | – | – | – | –
CN(C)c1ccc(O)c2c1C[C@H]1C[C@H]3[C@H](N(C)C)C(O)=C(C(N)=O)C(=O)[C@@]3(O)C(O)=C1C2=O [minocycline] | – | – | – | – | – | – | – | – | 204000 | 2800 | greater than 70 × | 25
Sodium Aurothiomalate | – | 48 ± 7 | not inhibited | 1190 ± 190 | maintained | – | not inhibited | 1160 ± 93 | – | – | – | –
